Measured values as given in US10183936B2, “Hepatitis B core protein allosteric modulators” (priority 2014, dated 2019).

Assays:
AD38 cells = assay: Viability of AD38 cells (Promega CellTiter-Glo) at the end of compound treatment; format: cell-based; conditions: 10 μM compound, 6 days, luminescence normalized against DMSO control wells (controls being 100%)
How it was run: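 AD38 cells seeded at 50,000/well received compound from a 10× solution in 10% DMSO and were incubated 6 days at 37° C. Viability was then read by CellTiter-Glo luminescence in tetracycline-free medium with 2% FBS and 1% DMSO, normalized to DMSO control wells (100%) and reported as percent viability.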

[1] = test system: HBV viral production in AD38 cells; assay: Viral load production in AD38 cells by quantitative PCR of the HBV core sequence in supernatant; format: cell-based; conditions: Hepatitis B virus, 144 h; 10 μM compound, 6 days at 37° C., viral load in supernatant compared against DMSO control wells; read-out: AD38 Viral Load (CpAM/DMSO %) at 10 μM
How it was run: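 AD38 cells seeded at 50,000/well, treated 6 days at 37° C with compound added as 10× solution in 10% DMSO. HBV core sequence in clarified supernatant quantified by TaqMan qPCR against known standards; viral load compared with DMSO control wells.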

Row | Compound | AD38 Viability Normalized Result (CPAM/DMSO %) at 10 μM (AD38 cells) | activity at 10 µM [1]
1 | O=C(NCCC1CCCCC1)Nc1ccc2c(c1)NC(=O)c1ccccc1S2 [Compound 1225, 1-(2-cyclohexylethyl)-3-(11-oxo-10, 11-dihydrodibenzo [b,f] [1,4]thiazepin-8-yl) urea] | 87% | 10%
2 | O=C(Nc1ncc(-c2ccccc2)s1)c1ccc2c(c1)NC(=O)c1cc(F)ccc1S2 [Compound 1481] | 100% | 46%
3 | COc1cccc(-c2cccc(NC(=O)c3ccc4c(c3)NC(=O)c3cc(F)ccc3S4)c2)c1 [Compound 1452] | 62% | 15%
4 | CN1C(=O)c2ccccc2Sc2ccc(C(=O)NCc3cncs3)cc21 [Compound 1573] | 126% | 46%
5 | O=C(Nc1cccc(-c2ccccc2)c1)c1cc2c(cc1F)Sc1ccccc1C(=O)N2 [Compound 1509] | 29% | 15%
6 | O=C(Nc1cccc(-c2ccccc2)c1)c1ccc2c(c1)NC(=O)c1ccccc1N2Cc1ccccc1 [Compound 1484] | 100% | 26%
7 | CCN1c2ccc(C(=O)NCCc3cccnc3)cc2NC(=O)c2ccccc21 [Compound 1523] | 70% | 1%
8 | Cc1ccc(CNC(=O)c2ccc3c(c2)NC(=O)c2ccccc2S3)cc1 [Compound 1164] | 103% | 27%
9 | O=C(NC(Cc1nnc[nH]1)c1ccccc1)c1ccc2c(c1)NC(=O)c1ccccc1S2 (stereo not shown) [Compound 1552] | 93% | 64%
10 | O=C(NC[C@@H](O)c1ccccc1)c1ccc2c(c1)NC(=O)c1ccccc1S2 [Compound 1226] | 80% | 1%
11 | COCCNC(=O)c1ccc2c(c1)NC(=O)c1ccccc1S2 [Compound 1171] | 103% | 49%
12 | O=C(NCCc1cnco1)c1ccc2c(c1)NC(=O)c1ccccc1S2(=O)=O [Compound 1616] | 115% | 5%
13 | Cc1cccc(CNC(=O)c2ccc3c(c2)NC(=O)c2ccccc2S3)c1 [Compound 1163] | 104% | 3%
14 | Cc1c(C(=O)NCc2cnco2)ccc2c1NC(=O)c1ccccc1S2 [Compound 1514] | 84% | 13%
15 | O=C(NCCc1ccccc1)c1ccc2c(c1)NC(=O)c1ccccc1S2 [Compound 1104] | 85% | 1%
16 | O=C(NCCc1ccc(-c2ccccc2)cc1)c1cc2c(cc1F)Sc1ccccc1C(=O)N2 [Compound 1491] | 80% | 39%
17 | O=C(NCCc1ccc(-n2cnnc2)cc1)c1ccc2c(c1)NC(=O)c1ccccc1S2 [Compound 1267] | 93% | 77%
18 | O=C(Nc1ccccc1)c1ccc2c(c1)NC(=O)c1cc(F)ccc1S2 [Compound 1319] | 83% | 16%
19 | O=C(Nc1ccc(F)cc1Cl)c1ccc2c(c1)NC(=O)c1cc(F)ccc1S2 [Compound 1323] | 60% | 96%
20 | O=C(NCCCc1ccccc1)c1ccc2c(c1)NC(=O)c1ccccc1S2 [Compound 1108] | 105% | 1%
21 | O=C(Nc1cncnc1)c1ccc2c(c1)NC(=O)c1cc(F)ccc1S2 [Compound 1328] | 105% | 54%
22 | O=C(Nc1ccncc1)c1ccc2c(c1)NC(=O)c1ccccc1S2(=O)=O [Compound 1462] | 99% | 35%
23 | CCOC(=O)C(NC(=O)c1ccc2c(c1)NC(=O)c1cc(F)ccc1S2)c1ccccn1 (stereo not shown) [Compound 1424] | 96% | 65%
24 | Cc1c(C(=O)NCCc2cncnc2)ccc2c1NC(=O)c1ccccc1S2 [Compound 1529] | 111% | 12%
25 | CC(C)(C)c1ccc(CNC(=O)c2ccc3c(c2)NC(=O)c2ccccc2S3)cc1 [Compound 1165] | 82% | 5%
26 | CC(=O)Nc1cccc(NC(=O)c2ccc3c(c2)NC(=O)c2ccccc2S3)c1 [Compound 1243] | 118% | 20%
